Source: publication PMC5352362, “Molecular and functional evaluation of a novel HIF inhibitor, benzopyranyl 1,2,3-triazole compound” (Oncotarget, 2016)

Experiments:
HUVECs = assay: Matrigel tube formation assay, VEGF-induced; type: cell-based, human; conditions: VEGF 20 ng/mL, 24 h
[1] = test system: chick chorioallantoic membrane angiogenesis; assay: Chick embryo chorioallantoic membrane (CAM) assay; type: in vivo; conditions: applied to ED 4.5 CAM for two days; Compound 12 0.1 μg and 1 μg
Protocol: Figure 5 Compound 12 suppressed HIF-1α target gene expression, and confirmation of in vitro results via determination of effects on angiogenesis in vivo (A) A549 cells were treated with Compound 12 (at concentrations of 0 nM, 1 nM, 10 nM, and 100 nM) for 16 h. The mRNA levels of HIF-1α target genes were determined by semiquantitative RT-PCR. β-actin was used as an internal control. D. DMSO vehicle control. N, normoxia; H, hypoxia. (B) A549 cells were treated with serum-reduced culture media containing Compound 12 (at concentrations of 0 nM, 10 nM, and 100 nM) for 16 h. Media supernatant was collected, and secreted VEGF was determined by ELISA after removal of cellular debris. N, normoxia; H, hypoxia. **P < 0.01 versus hypoxia (H) DMSO (D)-treated control. (C) HUVECs were treated with Compound 12, at the indicated concentrations, in the presence of VEGF (20 ng/mL) for 24 h in 1% serum-containing media. […] Cells that migrated through the membrane (8 μm pore size) were stained with hematoxylin and eosin, pictured as shown in upper panel, and counted (graph). *P < 0.05, **P < 0.01 versus VEGF-treated control. […] (F) Compound 12 (0.1 μg and 1 μg dosages) and retinoic acid (RA, positive control) were applied to the ED 4.5 CAM for two days, neovessel formation from the large vessels was observed, and percentages of positive angiogenic eggs (from total eggs tested) were calculated. […]

HIF-1α [2] = target: T1, HIF-1α (Homo sapiens, UniProt Q16665); assay: Immunofluorescence of nuclear HIF-1α in A549 cells; type: cell-based; conditions: 1–100 nM, hypoxia 16 h
Protocol: To further confirm the effects of Compound 12 on the inhibition of HIF-1α protein expression, we performed an immunofluorescent assay in A549 cells. Cells were treated with Compound 12 (1–100 nM) for 16 h under hypoxic conditions, and were then fixed with paraformaldehyde. Fixed cells were processed to allow immunostaining of HIF-1α by a HIF-1α antibody.
Figure 4 Compound 12 increased hydroxylation and proteasome-mediated degradation of HIF-1α (A) A549 cells were treated with Compound 12 (at concentrations of 0 nM, 1 nM, 10 nM, and 100 nM) for 16 h. […] Cells were immediately treated with cycloheximide (CHX, 100 μg/mL) for the time indicated, and HIF-1α protein levels were determined by western blotting. β-actin was used as an internal control. Half-life (t1/2) of HIF-1α protein was determined using relative expression levels of HIF-1α. […] The expression levels of HIF-1α, hydroxylated (OH)-HIF-1α at P402 or P564, and PHD2 were determined via western blotting using specific antibodies. […] Relative levels of ubiquitinated HIF-1α were quantified and graphed.
Cells were cultured on coverslips in four-well plates at a density of 1 × 10^5 cells/well, and allowed to attach for 24 h. […] Coverslips were mounted on slides, and cells were observed using fluorescence microscopy at 400X magnification (Carl Zeiss, AG, Germany).

HIF-1α [3] = target: T1, HIF-1α; assay: HIF-1α ubiquitination, IP/IB with MG132 in A549 cells; type: cell-based; conditions: hypoxia 16 h, then MG132 20 μM 4 h, compared to normoxic control cells
Protocol: Figure 4 Compound 12 increased hydroxylation and proteasome-mediated degradation of HIF-1α (A) A549 cells were treated with Compound 12 (at concentrations of 0 nM, 1 nM, 10 nM, and 100 nM) for 16 h. Cells were fixed with paraformaldehyde; an immunofluorescence assay was then performed using anti-HIF-1α antibodies and Alexa Fluor 488-labeled secondary antibodies (green). Nuclei were stained with DAPI. N, normoxia; H, hypoxia. (B) A549 cells were treated with Compound 12 (10 nM concentration) and exposed to hypoxic conditions for 16 h. Cells were immediately treated with cycloheximide (CHX, 100 μg/mL) for the time indicated, and HIF-1α protein levels were determined by western blotting. β-actin was used as an internal control. Half-life (t1/2) of HIF-1α protein was determined using relative expression levels of HIF-1α. (C) A549 cells were treated with Compound 12 (at concentrations of 0 nM, 1 nM, 10 nM, and 100 nM) for 16 h. The expression levels of HIF-1α, hydroxylated (OH)-HIF-1α at P402 or P564, and PHD2 were determined via western blotting using specific antibodies. N, normoxia; H, hypoxia. (D) A549 cells were transfected with two kinds of small interfering RNAs targeting PHD2 and then treated with Compound 12 under hypoxic exposure for 16 h. Cell lysates were immunoblotted with an anti-HIF-1α and PHD2 antibody. […] Relative levels of ubiquitinated HIF-1α were quantified and graphed. […]

T1 sequence (Q16665 whole entry): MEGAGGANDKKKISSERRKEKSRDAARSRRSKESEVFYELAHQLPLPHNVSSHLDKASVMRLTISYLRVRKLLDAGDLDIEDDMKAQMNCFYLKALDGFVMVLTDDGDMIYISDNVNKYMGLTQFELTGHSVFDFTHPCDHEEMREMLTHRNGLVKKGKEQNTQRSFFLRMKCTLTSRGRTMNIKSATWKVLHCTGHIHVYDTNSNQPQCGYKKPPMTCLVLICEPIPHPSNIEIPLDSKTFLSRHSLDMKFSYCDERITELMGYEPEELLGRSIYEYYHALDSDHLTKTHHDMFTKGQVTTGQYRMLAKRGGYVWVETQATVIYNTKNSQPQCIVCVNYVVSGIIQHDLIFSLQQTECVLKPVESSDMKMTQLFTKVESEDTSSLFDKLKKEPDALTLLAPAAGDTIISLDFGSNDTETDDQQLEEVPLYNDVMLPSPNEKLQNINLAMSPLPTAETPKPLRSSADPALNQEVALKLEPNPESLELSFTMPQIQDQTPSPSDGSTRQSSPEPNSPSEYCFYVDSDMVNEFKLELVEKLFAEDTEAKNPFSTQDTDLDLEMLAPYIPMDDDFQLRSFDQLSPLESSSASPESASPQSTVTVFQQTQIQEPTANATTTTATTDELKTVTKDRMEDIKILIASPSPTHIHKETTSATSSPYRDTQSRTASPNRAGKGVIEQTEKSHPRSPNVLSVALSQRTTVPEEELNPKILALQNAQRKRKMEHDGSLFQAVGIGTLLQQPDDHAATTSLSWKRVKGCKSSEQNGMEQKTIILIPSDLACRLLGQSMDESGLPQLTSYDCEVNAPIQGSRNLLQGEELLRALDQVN

SMILES: COc1ccc(-c2cn(CC3(C)C=Cc4cc([N+](=O)[O-])ccc4O3)nn2)cc1 (centres unmarked) [Compound 12, 4-(4-methoxyphenyl)-1-((2-methyl-6-nitro-2H-chromen-2-yl)methyl)-1H-1,2,3-triazole]
- VEGF-induced tube formation (HUVECs): significantly inhibited
- CAM angiogenesis [1]: significantly suppressed CAM angiogenesis, in a dose-dependent manner
- accumulation of nuclear HIF-1α (HIF-1α [2]): inhibited in dose-dependent manner
- subcellular localization of HIF-1α (HIF-1α [2]): did not affect
- ubiquitination of HIF-1α (HIF-1α [3]): significantly increased
